Reference: patent US6355799B1, “Substituted benzene compounds, process for their preparation, and herbicidal and defoliant compositions containing them” (ISK Americas Incorporated, priority 1997, dated 2002)

Tests used:
Type in all cases: in vivo
[1] = system: redroot pigweed (Amaranthus retroflexus, AMARE); test: Pre-emerge test, greenhouse herbicide activity screening; conditions: pre-emerge, rated 14 days after application, 0 = no damage, 100 = complete death
Outline: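 Herbicidal damage is scored 0 (none) to 100 (complete plant death) two weeks after a simulated field spray. Rates span 15–1000 g ai/ha, delivered in acetone at 187 l/ha. For post-emergence treatments, plants have 2–3 leaves and the spray carries 0.25% v/v non-ionic surfactant.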

[2] = system: lambsquarters (Chenopodium album, CHEAL); test: as above; conditions: pre-emerge, rated 14 days after application, 0 = no damage, 100 = complete death
Outline: (§1)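 Applied at 15–1000 g ai/ha from acetone in 187 l/ha spray volume. Post-emergence applications included 0.25% v/v non-ionic surfactant and reached plants sown 8–21 days before. Pre-emergence applications were incorporated by surface watering. Efficacy or crop damage was rated on a 0–100 scale after 14 days.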

[3] = system: velvetleaf (Abutilon theophrasti, ABUTH); test: as above; conditions: pre-emerge, rated 14 days after application, 0 = no damage, 100 = complete death
Outline: as §1

[4] = system: johnsongrass (Sorghum halepense, SORHA); test: as above; conditions: pre-emerge, rated 14 days after application, 0 = no damage, 100 = complete death
Outline: as §1

[5] = system: common ragweed (Ambrosia artemisizfolia L., AMBEL); test: as above; conditions: pre-emerge, rated 14 days after application, 0 = no damage, 100 = complete death
Outline: as §1

[6] = system: sicklepod (Cassia obtusifolia, CASOB); test: as above; conditions: pre-emerge, rated 14 days after application, 0 = no damage, 100 = complete death
Outline: as §1

[7] = system: ivyleaf morningglory (Ipomoea hederacea, IPOHE); test: as above; conditions: pre-emerge, rated 14 days after application, 0 = no damage, 100 = complete death
Outline: as §1

[8] = system: green foxtail (Setaria viridis, SETVI); test: as above; conditions: pre-emerge, rated 14 days after application, 0 = no damage, 100 = complete death
Outline: as §1

[9] = system: large crabgrass (Digitaria sanguinalis, DIGSA); test: as above; conditions: pre-emerge, rated 14 days after application, 0 = no damage, 100 = complete death
Outline: as §1

[10] = system: barnyardgrass (Echinochloa crus-galli, ECHCG); test: as above; conditions: pre-emerge, rated 14 days after application, 0 = no damage, 100 = complete death
Outline: as §1

[11] = system: redroot pigweed (Amaranthus retroflexus, AMARE); test: Post-emerge test, greenhouse herbicide activity screening; conditions: phytotoxicity rating 0-100 (0 no damage, 100 complete death), 14 days after application
Outline: (§2)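 Compounds in acetone were track-sprayed at 187 l/ha, 15–1000 g ai/ha, onto sandy loam pots. Pre-emerge seeds were sown one day before spraying, with surface watering afterwards. Post-emerge plants were at the 2–3 leaf stage and sprayed with 0.25% v/v non-ionic surfactant. Injury was rated 0–100 at 14 days.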

[12] = system: lambsquarters (Chenopodium album, CHEAL); test: as above; conditions: phytotoxicity rating 0-100 (0 no damage, 100 complete death), 14 days after application
Outline: as §2

[13] = system: velvetleaf (Abutilon theophrasti, ABUTH); test: as above; conditions: phytotoxicity rating 0-100 (0 no damage, 100 complete death), 14 days after application
Outline: as §2

[14] = system: johnsongrass (Sorghum halepense, SORHA); test: as above; conditions: phytotoxicity rating 0-100 (0 no damage, 100 complete death), 14 days after application
Outline: as §2

[15] = system: common ragweed (Ambrosia artemisizfolia L., AMBEL); test: as above; conditions: phytotoxicity rating 0-100 (0 no damage, 100 complete death), 14 days after application
Outline: as §2

[16] = system: sicklepod (Cassia obtusifolia, CASOB); test: as above; conditions: phytotoxicity rating 0-100 (0 no damage, 100 complete death), 14 days after application
Outline: as §2

[17] = system: ivyleaf morningglory (Ipomoea hederacea, IPOHE); test: as above; conditions: phytotoxicity rating 0-100 (0 no damage, 100 complete death), 14 days after application
Outline: as §2

[18] = system: large crabgrass (Digitaria sanguinalis, DIGSA); test: as above; conditions: phytotoxicity rating 0-100 (0 no damage, 100 complete death), 14 days after application
Outline: as §2

[19] = system: barnyardgrass (Echinochloa crus-galli, ECHCG); test: as above; conditions: phytotoxicity rating 0-100 (0 no damage, 100 complete death), 14 days after application
Outline: as §2

[20] = system: field corn (Zea mays L., var. Dekalb 535, CORN); test: Post-emerge test, crop safety; conditions: phytotoxicity rating 0-100 (0 no damage, 100 complete death), 14 days after application
Outline: as §1

[21] = system: upland rice (Oryza sp., var. Tebonnet, RICE); test: Post-emerge test, crop safety; conditions: phytotoxicity rating 0-100 (0 no damage, 100 complete death), 14 days after application
Outline: as §1

[22] = system: field corn (Zea mays L., var. Dekalb 535, CORN); test: Pre-emerge test, crop safety; conditions: pre-emerge, rated 14 days after application, 0 = no damage, 100 = complete death
Outline: (§3)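 Plants grown in 10 cm pots of sandy loam mix received acetone-dissolved compounds through a moving flat-fan nozzle. Doses ranged from 15 to 1000 g ai/ha. Pre-emerge pots were seeded one day earlier, post-emerge pots 8–21 days earlier. Fourteen days on, each pot was graded 0–100 for damage.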

[23] = system: upland rice (Oryza sp., var. Tebonnet, RICE); test: Pre-emerge test, crop safety; conditions: pre-emerge, rated 14 days after application, 0 = no damage, 100 = complete death
Outline: as §3

COc1c(Cl)cc(F)c(-n2c(=O)cc(C(F)(F)F)n(C)c2=O)c1NC(=O)c1ccc(C(C)(C)C)cc1 [2-30] was tested, and the “Pre-emerge Herbicidal Activity AMARE (phytotoxicity rating, scale 0-100)” value ([1]; 63 g ai/ha) was 0, the “Pre-emerge Herbicidal Activity AMARE (phytotoxicity rating, scale 0-100)” value ([1]; 250 g ai/ha) was 0 and the “Pre-emerge Herbicidal Activity CHEAL (phytotoxicity rating, scale 0-100)” value ([2]; 63 g ai/ha) was 0. The “Pre-emerge Herbicidal Activity CHEAL (phytotoxicity rating, scale 0-100)” value ([2]; 250 g ai/ha) was 70, the “Pre-emerge Herbicidal Activity ABUTH (phytotoxicity rating, scale 0-100)” value ([3]; 63 g ai/ha) was 0 and the “Pre-emerge Herbicidal Activity ABUTH (phytotoxicity rating, scale 0-100)” value ([3]; 250 g ai/ha) was 20. The “Pre-emerge Herbicidal Activity SORHA (phytotoxicity rating, scale 0-100)” value ([4]; 63 g ai/ha) was 0, the “Pre-emerge Herbicidal Activity SORHA (phytotoxicity rating, scale 0-100)” value ([4]; 250 g ai/ha) was 0 and the “Pre-emerge Herbicidal Activity AMBEL (phytotoxicity rating, scale 0-100)” value ([5]; 63 g ai/ha) was 0. The “Pre-emerge Herbicidal Activity AMBEL (phytotoxicity rating, scale 0-100)” value ([5]; 250 g ai/ha) was 0, the “Pre-emerge Herbicidal Activity CASOB (phytotoxicity rating, scale 0-100)” value ([6]; 63 g ai/ha) was 0 and the “Pre-emerge Herbicidal Activity CASOB (phytotoxicity rating, scale 0-100)” value ([6]; 250 g ai/ha) was 0. For the same molecule, the “Pre-emerge Herbicidal Activity IPOHE (phytotoxicity rating, scale 0-100)” value ([7]; 63 g ai/ha) was 0, the “Pre-emerge Herbicidal Activity IPOHE (phytotoxicity rating, scale 0-100)” value ([7]; 250 g ai/ha) was 0 and the “Pre-emerge Herbicidal Activity SETVI (phytotoxicity rating, scale 0-100)” value ([8]; 63 g ai/ha) was 0. For the same molecule, the “Pre-emerge Herbicidal Activity SETVI (phytotoxicity rating, scale 0-100)” value ([8]; 250 g ai/ha) was 20, the “Pre-emerge Herbicidal Activity DIGSA (phytotoxicity rating, scale 0-100)” value ([9]; 63 g ai/ha) was 0 and the “Pre-emerge Herbicidal Activity DIGSA (phytotoxicity rating, scale 0-100)” value ([9]; 250 g ai/ha) was 0. For the same molecule, the “Pre-emerge Herbicidal Activity ECHCG (phytotoxicity rating, scale 0-100)” value ([10]; 63 g ai/ha) was 0, the “Pre-emerge Herbicidal Activity ECHCG (phytotoxicity rating, scale 0-100)” value ([10]; 250 g ai/ha) was 0 and the “Post-emerge Herbicidal Activity AMARE” value ([11]; 63 g ai/ha) was 0. For the same molecule, the “Post-emerge Herbicidal Activity AMARE” value ([11]; 250 g ai/ha) was 20, the “Post-emerge Herbicidal Activity CHEAL” value ([12]; 63 g ai/ha) was 0 and the “Post-emerge Herbicidal Activity CHEAL” value ([12]; 250 g ai/ha) was 50. The “Post-emerge Herbicidal Activity ABUTH” value ([13]; 63 g ai/ha) was 30, the “Post-emerge Herbicidal Activity ABUTH” value ([13]; 250 g ai/ha) was 70 and the “Post-emerge Herbicidal Activity SORHA” value ([14]; 63 g ai/ha) was 0. The “Post-emerge Herbicidal Activity SORHA” value ([14]; 250 g ai/ha) was 0, the “Post-emerge Herbicidal Activity AMBEL” value ([15]; 63 g ai/ha) was 0 and the “Post-emerge Herbicidal Activity AMBEL” value ([15]; 250 g ai/ha) was 10. For the same molecule, the “Post-emerge Herbicidal Activity CASOB” value ([16]; 63 g ai/ha) was 0, the “Post-emerge Herbicidal Activity CASOB” value ([16]; 250 g ai/ha) was 0 and the “Post-emerge Herbicidal Activity IPOHE” value ([17]; 63 g ai/ha) was 0. For the same molecule, the “Post-emerge Herbicidal Activity IPOHE” value ([17]; 250 g ai/ha) was 20, the “Post-emerge Herbicidal Activity DIGSA” value ([18]; 63 g ai/ha) was 0 and the “Post-emerge Herbicidal Activity DIGSA” value ([18]; 250 g ai/ha) was 0. For the same molecule, the “Post-emerge Herbicidal Activity ECHCG” value ([19]; 63 g ai/ha) was 0, the “Post-emerge Herbicidal Activity ECHCG” value ([19]; 250 g ai/ha) was 0 and the “Post-emerge Herbicidal Activity CORN (crop damage)” value ([20]; 63 g ai/ha) was 0. For the same molecule, the “Post-emerge Herbicidal Activity CORN (crop damage)” value ([20]; 250 g ai/ha) was 0, the “Post-emerge Herbicidal Activity RICE (crop damage)” value ([21]; 63 g ai/ha) was 0 and the “Post-emerge Herbicidal Activity RICE (crop damage)” value ([21]; 250 g ai/ha) was 0. For the same molecule, the “Pre-emerge crop damage CORN (phytotoxicity rating, scale 0-100)” value ([22]; 63 g ai/ha) was 0, the “Pre-emerge crop damage CORN (phytotoxicity rating, scale 0-100)” value ([22]; 250 g ai/ha) was 0 and the “Pre-emerge crop damage RICE (phytotoxicity rating, scale 0-100)” value ([23]; 63 g ai/ha) was 0. For the same molecule, the “Pre-emerge crop damage RICE (phytotoxicity rating, scale 0-100)” value ([23]; 250 g ai/ha) was 0.
